pIC50: −log10 of the molar value. Where “and” joins values, the source holds several entries; their conditions need not be identical. Equal entries are not always repeated. Where two headings read alike, the source gives them in different places.
Key:
[1] = system: PC3; assay: Soft agar colony-formation assay, prostate cancer; format: cell-based; conditions: for anticancer activity in comparison with cisplatin, soft agar, prostate cancer cell line: FIG. 52, PC3; for pIC50: Soft Agar Assay, 1 week, Alamar Blue
Method: (§1) The Soft Agar Colony-formation Assay is an anchorage-independent growth assay in soft agar, which is one of the most stringent assays for detecting malignant transformation of cells. For this assay, malignant cells are cultured with appropriate controls in soft agar medium for 1-2 weeks. Following this incubation period, formed colonies can either be analyzed morphologically using cell stain and quantifying the number of colonies formed.
(§2) Briefly, for Soft Agar Assay a mixture of 50 ul of 2× medium (taken appropriately as per cell line) and 50 ul of 1.2% Bacto Agar were plated on to each well of 96 well micro titer assay plate. 10 ul of cells (of specific plating efficiency pre standardized for respective cell line) were mixed with 20 ul of 2× medium and 30 ul of 0.8% of Bacto Agar and 1.6 ul of drug (of appropriate concentration) in a vial and transferred to the solidified pre layers of the assay plates. The cells were then allowed to grow and form colonies at 37° C. and 5% CO2 for 1 week. An intermittent feeding with 50 ul of appropriate 2× medium was performed after 3 days of experimental set up. 16 ul of Alamar Blue (1.5 mg/ml) was then added to all the wells to quantify the developed colonies. The plates were incubated for 24 hrs at 37° C. Absorbance was then measured at 630 nm. XY graph of log Percent viability was then plotted against log drug concentration.
(§3) Following plating efficiencies were standardized for Soft Agar Assay: […]

[2] = system: MDAMB231; assay: In vitro sphere-forming assay (cancer stem cells), Mammosphere media; conditions: for viability at 0.0025 µM / viability at 0.025 µM / viability at 0.25 µM / viability at 2.5 µM / viability at 25 µM: Homo sapiens, MDA-MB-231, read-out: % Viability of spheres (MDAMB231); for 3D sphere count of MDAMB231: Mammosphere media, 2000 cells/well, n = 6 ± S.D
Method: (§7) In Vitro Sphere-forming Assay: Sphere assay measures the ability of cancer stem cells (CSCs) to form spheres in specially designed serum-free medium.
(§8) Mammosphere Media Preparation (For 100 mL): 1 g methyl cellulose autoclaved with magnetic stirrer, 100 ml plain media (MEBM) was added and dissolved under magnetic stirring. After complete dissolution FGF-80 μL, EGF-40 μL, Penstrep-1 mL, Heparin-400 μL was added.
(§9) Procedure—The cells were trypsinised and made into single-cell suspension by passing through cell strainers (100 μl and 40 μl, respectively), The cells were diluted at a concentration of 2000 cells/100 μL and suspended in either Mammosphere (for breast cell lines) or Prostosphere (for prostate cell lines). 100 μL of this suspension was added into each well of 96-well suspension plates and incubated at 37° C., 5% CO2 for 24 hrs. Appropriate concentrations of the drugs (2 μL) were added into respective wells with 100 μL of stem cell culture medium. Plates were incubated at 37° C., 50 CO2 for 72 hrs. After incubation, 2.5 μL of the respective drug concentration and 50 μL of stem cell culture medium were added into each well and the plates were further incubated at 37° C., 50% CO2 for 72 hrs. 3 μL of the respective drug concentration was added with 50 μL of stem cell culture medium again after incubation and plates were reincubated for 72 hrs at 37° C., 50 CO2. Number of primary spheres formed for each concentration were counted. The spheres were converted to 0 viability of spheres compared to untreated (Growth Control with DMSO, GCD).

[3] = system: MDAMB231; assay: In vitro antiproliferative assay (MTT assay), breast cancer cell line; format: cell-based; conditions: MTT assay, breast cancer MDAMB231, 48 hrs drug incubation
Summary of the method: (§4)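 Seed at predetermined efficiency → 24 h → compound 48 h → spin, discard supernatant → MTT 0.5 mg/ml 4 h → spin → DMSO. Log viability plotted against log dose.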

[4] = system: PC3; assay: Wound Healing Assay (WHA), prostate cancer cell line; format: cell-based; conditions: IC10 conc. of compound
Method: (§5) Wound Healing Assay (WHA) determines the ability of cancer stem cells to heal the wound formed in a confluent monolayer.
(§6) Procedure: 0.35×10^6 cells were plated in each well of 6 Tissue Culture well plates. The plate was incubated for 48 hrs at 37° C., 5% CO2. […] IC10 conc. of the respective compound was added into each well. The plates were incubated at 37° C., 5% CO2 and the width of scratch was measured at various time intervals such as 6, 24 and 48 hours. Average of 3 distances were taken for each time point using IS camera Measure. A plot of average width of scratch in micrometer was plotted against the time interval after treatment.

[5] = system: MDAMB231; assay: Soft agar colony-formation assay, breast cancer; format: cell-based; conditions: for anticancer activity in comparison with cisplatin, soft agar, breast cancer cell line: FIG. 51, MDAMB231; for pIC50: Soft Agar Assay, 1 week, Alamar Blue
Method: as §1, §2, §3

[6] = system: PC3; assay: In vitro sphere-forming assay (cancer stem cells), Prostosphere media; conditions: for viability at 0.0025 µM / viability at 0.025 µM / viability at 0.25 µM / viability at 2.5 µM / viability at 25 µM: Homo sapiens, PC-3, read-out: % Viability of spheres (PC3); for 3D sphere count of PC3: Prostosphere media, 2000 cells/well, n = 6 ± S.D
Method: as §7
(§10) Prostosphere Media Preparation (For 100 mL):1 g methyl cellulose autoclaved with magnetic stirrer, 100 mL plain media (Prostate Epithelial Basal Medium) was added and dissolved, under magnetic stirring. After complete dissolution, Insulin-40 μL, B27-2 mL, EGF-80 μL, Penstrep-1 ml was added.
as §9

[7] = system: PC3; assay: In vitro antiproliferative assay (MTT assay), prostate cancer cell line; format: cell-based; conditions: MTT assay, prostate cancer PC3, 48 hrs drug incubation
Summary of the method: as §4

[8] = system: Human lymphocytes; assay: Lymphocyte assay (MTT on normal cells); format: cell-based; conditions: Lymphocyte; human peripheral blood lymphocytes, MTT procedure
Method: Human lymphocytes were isolated from the peripheral blood. A pure population of lymphocytes was obtained based on differential centrifugation, in which diluted defibrinated blood was layered on a solution of sodium diatrizoate and polysucrose (HiSep LSM 1077) and centrifuged at low speeds for 30 mins.
Procedure: The separation of lymphocytes from fresh defibrinated blood was performed by the procedure described below: • 1. Diluted defibrinated fresh blood was overlaid gradually on (HiSeP LSM1077) and centrifuged at low speed for 30 mins. • 2. The lymphocyte layer (the buffy coat) was carefully removed in a new collection tube. • 3. The buffy coat was given another wash, by the diluent buffer Dulbecco's phosphate buffered saline (D.P.B.S) • 4. The supernatant was discarded and the pellet was resuspended in D.P.B.S. • 5. The viability of cells was checked by Haemocytometer. • 6. Cells with purity and viability of more than 95% were taken for the experiment. • 7. Purified lymphocytes were diluted at a concentration of 0.7 million/ml with sterile D.P.B.S and MTT procedure was performed exactly as described earlier.

[9] = system: MDAMB231; assay: Wound Healing Assay (WHA), breast cancer cell line; format: cell-based; conditions: IC10 conc. of compound
Method: as §5, §6

[10] = system: Aldehyde dehydrogenase (ALDH); assay: Aldehyde Dehydrogenase (ALDH) assay, ELISA kit; format: cell-based; conditions: MDAMB231, 48 hrs
Description: Aldehyde dehydrogenases (ALDH) are a family of enzymes that catalyze the metabolism of exogenous and endogenous aldehydes, preventing the accumulation of potentially reactive and toxic aldehydes and their metabolites. In addition to their role in aldehyde metabolism, ALDH enzymes also play critical roles in other cellular processes such as cell proliferation, differentiation, and survival. ALDH also serves as a marker for certain stem cell populations including hematopoietic stem cells and certain cancer stem cells. ALDH concentration was determined by using ([…] Dx) ELISA kit by following protocol: • 1 Standards (50 μl)/sample (40 μl) were added to the respective wells, (except Blank). • 2. (10 μl) Antibody-Biotin conjugate was then added in each sample well (except Blank). • 3. (50 μl) of Horse Radish Peroxidase (HRP) Conjugate was then added to each well (except Blank). • 4. The plates were incubated for one hour at 37° C. in the incubator. • 5. Wash (4 times with wash buffer) and blot residual buffer by firmly tapping the plate on the absorbent paper. Wipe off any liquid from the bottom of the microtiter wells as any residue can interfere in the reading step. • 6. Add TMB substrate A (50 μl) and then TMB substrate B (50 μl) to each well including Blank as well. • 7. Incubate for 10 mins at 37° C. in dark. • 8. Add (50 μl) stop solution. Wells should turn from blue to yellow. • 9. Read absorbance at 450 nm. • 10 A X-Y graph of concentration vs optical density was plotted. ALDH concentration was calculated by substituting optical density values in the regression analysis equation.

[11] = system: MDAMB231; conditions: human, 216 h
Method: as §7, §8, §9

[12] = system: PC3; conditions: human, 216 h
Method: as §7, §10, §9

[13] = Homo sapiens, MDA-MB-231, 168 h

Row | SMILES | anticancer activity in comparison with cisplatin, soft agar, prostate cancer cell line [1] | pIC50 ([1]; Homo sapiens, PC-3, 168 h) | viability at 0.0025 µM [2] | viability at 0.025 µM [2] | viability at 0.25 µM [2] | viability at 2.5 µM [2] | viability at 25 µM [2] | 3D sphere count of MDAMB231 ([2]; drug 0.0025 uM) | 3D sphere count of MDAMB231 ([2]; drug 0.025 uM) | 3D sphere count of MDAMB231 ([2]; drug 0.25 uM) | 3D sphere count of MDAMB231 ([2]; drug 2.5 uM) | 3D sphere count of MDAMB231 ([2]; drug 25 uM) | pIC50 ([3]; Homo sapiens, MDA-MB-231, 48 h) | % inhibition of Wound Healing for Prostate Cancer Cell line (PC3) after 48 hrs [4] | 3D sphere count of PC3 ([6]; drug 0.0025 uM) | 3D sphere count of PC3 ([6]; drug 0.025 uM) | 3D sphere count of PC3 ([6]; drug 0.25 uM) | 3D sphere count of PC3 ([6]; drug 2.5 uM) | 3D sphere count of PC3 ([6]; drug 25 uM) | pIC50 [7] | further results
1 | COc1ccc(OC2=CC(=O)c3c(OCCN4CCOCC4)cccc3C2=O)cc1 [Formula 43, 5-(2-morpholinoethoxy)-2-(4-methoxyphenoxy) naphthalene-1,4-dione] | higher anticancer activity in comparison with cisplatin | 6.38 | 82% | 61% | 46% | 33% | 21% | 82(±4) | 61(±3) | 46(±3) | 33(±4) | 21(±3) | 6.00 | 50.47% | 75(±4) | 57(±5) | 46(±4) | 30(±4) | 21(±3) | 6.30 | anticancer activity in comparison with cisplatin, soft agar, breast cancer cell line [5]: higher anticancer activity in comparison with cisplatin; pIC50 [5, 13]: 6.18; viability at 0.0025 µM [6]: 75%; viability at 0.025 µM [6]: 57%; viability at 0.25 µM [6]: 46%; viability at 2.5 µM [6]: 30%; viability at 25 µM [6]: 21%; pIC50 [8]: 4.97; % inhibition of Wound Healing for Breast Cancer Cell line (MDAMB231) after 48 hrs [9]: 53.3%
2 | N.N.[Cl][Pt][Cl] [Cisplatin, reference compound] |  |  |  |  |  |  |  |  |  |  |  |  |  | 25.13% |  |  |  |  |  | 4.45 | pIC50 [1]: 4.46; 3D sphere count of MDAMB231 ([2]; drug 250 uM): 28(±3) and 26(±3); pIC50 [3]: 4.51; pIC50 [5]: 4.45; % inhibition of ALDH on Breast Cancer Cell line (MDAMB231) after 48 hrs [10]: 26.45%; % inhibition of Wound Healing for Breast Cancer Cell line (MDAMB231) after 48 hrs [9]: 33.78%
3 | O=C1C(Nc2ccc3c(c2)OCO3)=CC(=O)c2c(OCC(=O)N3CCOCC3)cccc21 [Formula 71] | higher anticancer activity in comparison with cisplatin | 5.48 | 79% | 64% | 53% | 34% | 13% | 65(±5) | 53(±4) | 44(±4) | 28(±3) | 11(±2) | 5.87 |  | 65(±5) | 53(±4) | 44(±4) | 28(±3) | 11(±2) |  | anticancer activity in comparison with cisplatin, soft agar, breast cancer cell line [5]: higher anticancer activity in comparison with cisplatin; pIC50 [5, 13]: 5.75; viability at 0.0025 µM [6]: 95%; viability at 0.025 µM [6]: 65%; viability at 0.25 µM [6]: 52%; viability at 2.5 µM [6]: 37%; viability at 25 µM [6]: 20%; pIC50 ([7]; Homo sapiens, PC-3, 48 h): 5.45; pIC50 [8]: 4.60
4 | COc1ccc(OC2=CC(=O)c3c(OCCN4CCOCC4)cccc3C2=O)cc1 [Formula 81] |  |  |  |  |  |  |  | 82(±4) | 61(±3) | 46(±3) | 33(±4) | 21(±3) |  |  | 75(±4) | 57(±5) | 46(±4) | 30(±4) | 21(±3) | 5.66 | pIC50 [3]: 6.20; % Viability of spheres (MDAMB231) ([11]; 0.0025 uM): 82(±4) %; % Viability of spheres (MDAMB231) ([11]; 0.025 uM): 61(±3) %; % Viability of spheres (MDAMB231) ([11]; 0.25 uM): 46(±3) %; % Viability of spheres (MDAMB231) ([11]; 2.5 uM): 33(±4) %; % Viability of spheres (MDAMB231) ([11]; 25 uM): 21(±3) %; % Viability of spheres (PC3) ([12]; 0.0025 uM): 75(±4) %; % Viability of spheres (PC3) ([12]; 0.025 uM): 57(±5) %; % Viability of spheres (PC3) ([12]; 0.25 uM): 46(±4) %; % Viability of spheres (PC3) ([12]; 2.5 uM): 30(±4) %; % Viability of spheres (PC3) ([12]; 25 uM): 21(±3) %

Reference: patent US20240018132A1, “5-HYDROXY-1,4-NAPHTHALENEDIONE FOR USE IN THE TREATMENT OF CANCER” (GODAVARI BIOREFINERIES LIMITED, priority 2020, published 2024)
